Measurements taken from US11708391B2, “Rapaglutins, novel inhibitors of GLUT and use thereof” (The Johns Hopkins University, priority 2016, dated 2023).
pIC50: −log10 of the molar value. Read-outs that look alike come from different tables or passages of the source.

Assays:
mTOR = assay: Western blot, mTOR / S6K in HEK 293T; format: cell-based
Text: (§1) FIGS. 7A-7B. (a) A18 activates AMPK and inhibits S6K in HEK 293T cells. […] (b) A18 and E11 activate AMPK and inhibit S6K in HEK 293T cells.
(§2) Whether A18 and E11 treatment affect key cell growth signaling proteins was examined next. […] But it has no effects on the phosphorylation of ERK, AKT or JNK (FIG. 7). As previously reported, AMPK is likely to act as the key link between the ATP reduction and the subsequent cancer cell inhibition. (FIGS. 7 and 23-25). Based on the data reported here, the working model for A18 and E11 was proposed as outlined in FIG. 8. […] These led to upregulation of phosphorylation of AMPK and downregulation of phosphorylation of S6K. […] (FIG. 8)

DLD-1 wild type = assay: 2-deoxy-D-[3H] glucose uptake in DLD-1 wild type cells; format: cell-based
Text: (§3) FIGS. 4A-4B. E11 is a specific inhibitor of Glut1. (a) Glut1 protein levels of DLD-1 wild type and knock out cells analyzed by western blotting. (b) Inhibition of 2-deoxy-D-[3H] glucose uptake in DLD-1 wild type and knock out cells by E11 or A18.
(§4) Up to now, at least 14 different isoforms of GLUTs have been identified in human cells. It was then asked whether A18 and E11 are specific inhibitors of GLUT1. To answer this question, colon cancer DLD-1 wild type and GLUT1 gene knock out cell lines were chosen as a cell model (FIG. 4a). […] GLUTs that are most relevant to cancer are Glut1 and Glut3. To obtain additional evidence, Glut1 and Glut3 in HEK 293T cells were overexpressed and an alamar blue cell viability assay was performed again. […] (see FIGS. 4, 19, 20, 26; Table 4).

AMPK = assay: Western blot, AMPK phosphorylation in HEK 293T; format: cell-based
Text: as §1, §2

IL2 = IL2 reporter / IL-2 production in Jurkat T cells; format: cell-based
Text: FIGS. 28A-28D. (a) A18 and E11 inhibit NFAT and A18, but not E11, stimulates SRE reporter gene signal. (b) E11 inhibits NFAT, NF-κB and IL2, but not MEF-2 or AP-1 pathways, in Jurkat T cells. (c) Glucose inhibitor stimulates SRE reporter gene signal.
Both A18 and E11 have shown immunosuppressive activity, blocking NFAT reporter gene activation and IL-2 production (see e.g., FIG. 28). As such, they can be used as immunosuppressive agents that have applications in treating organ transplantation rejection and all kinds of autoimmune diseases. […]

HEK 293T = assay: flow cytometric cell cycle analysis in HEK 293T; format: cell-based; settings: 5 μM, 24 h
Protocol: FIGS. 25A-25C. A18 and E11 inhibit cell cycle progression in the S phase. HEK 293T were incubated with DMSO (a), 5 μM A18 (b) or 5 μM E11 (c) for 24 h before they were harvested for cell cycle analysis.

HeLa = assay: alamar blue assay, HeLa; format: cell-based
Text: Dose-dependent inhibition of cell proliferation by A18 and E11 was next evaluated in several other human cancer cell lines, including breast cancer HCC1954, pancreatic cancer PANC10.05, leukemia Jurkat T and colon cancer RKO (FIGS. 1b and 1c). […] (FIGS. 1 and 9; Table 3)

[1] = tested on: DLD-1 GLUT1 gene knock out cells; assay: alamar blue cell viability assay, DLD-1 GLUT1 knock out; format: cell-based
Text: FIGS. 19A-19C. E11 is a specific inhibitor of Glut1. (a)(b) Inhibition of cell proliferation in A549, DLD-1 wild type and Glut1 knock out cells by A18 and E11. (c) Potency of A18 and E11 against the alamar blue assay in A549, DLD-1 wild type and Glut1 knock out cells.
as §4

[2] = tested on: DLD-1 GLUT1 gene knock out cells; assay: 2-deoxy-D-[3H] glucose uptake in DLD-1 GLUT1 knock out cells; format: cell-based
Text: as §3, §4

glucose transporters = tested on: T1, glucose transporters; assay: 2-deoxy-D-[3H] glucose uptake in A549 cells; format: cell-based, human; settings: for inhibition of glucose transport: A549 cells, glucose uptake assay
T1 construct: IC50 uptake of 3H-labeled 3-O-methylglucose; other: A549 cells; compared with 3-O-methylglucose uptake; other: A549 cells treated with drugs for 1 min; other: A549 cells, glucose uptake assay; other
Protocol: FIGS. 2A-2D. Inhibition of Glucose Transport by A18 and E11. (a) Inhibition of 3-O-methyl¬D-[3H] glucose uptake in A549 cells by A18. (b) Inhibition of 3-O-methyl-D-[3H] glucose uptake in A549 cells by E11. (c) Inhibition of 2-deoxy-D-[3H] glucose uptake in A549 […] cells by A18. (d) Inhibition of 2-deoxy-D-[3H] glucose uptake in A549 cells by E11.
FIGS. 16A-16B. Inhibition of Glucose Transport by A18 and E11. Cytochalasin B (10 μM), A18 (3 μM), E11 (3 μM) and DMSO control were used to treated A549 cells for 10 min (a) or 1 min (b), then glucose uptake in the treated cells was measured at 1, 3, 10 and 30 min after the addition of 2-dexoy-D-[^3H] glucose.
Direct action on glucose transporters was measured by monitoring uptake of 3H-labeled 3-O-methylglucose, which is transported by glucose transporters but not metabolized further, allowing the assessment of initial rate of glucose uptake. […] Initial uptake can also be assessed by measuring the uptake of 3H-labeled 2-deoxy-D-glucose, which gets into the cell through glucose transporters and is phosphorylated by hexokinase but cannot be metabolized further due to the lack of oxygen at the second position.

| Molecule | mTOR inhibition (S6K) (mTOR) | inhibition of 2-deoxy-D-glucose uptake (DLD-1 wild type) | phosphorylation of AMPK (AMPK) | IL-2 production (IL2) | additional cells in S phase (HEK 293T) | pIC50 (HeLa; Homo sapiens) | inhibition of cell proliferation, alamar blue [1] | inhibition of 2-deoxy-D-glucose uptake [2] | inhibition of glucose transport (glucose transporters) | IL2 pathway (IL2; Jurkat T cells) | pIC50 (HeLa) | glucose uptake inhibition (glucose transporters; A549 cells treated with drugs for 1 min) |
| --- | --- | --- | --- | --- | --- | --- | --- | --- | --- | --- | --- | --- |
| CC[C@@H](C)[C@H]1C(=O)NCC(=O)N(C)CC/C=C/C(=O)OCC(C)(C)C(=O)C(=O)N2CCCC[C@H]2C(=O)O[C@H](CCc2ccc(OC)c(OC)c2)c2cccc(c2)NC(=O)CCC(=O)N(C)[C@@H](CC(C)C)C(=O)N[C@H](Cc2ccccc2)C(=O)N1C [A18] | mTOR inhibition | strongly inhibited | inducing phosphorylation of AMPK | blocking | approximately 10% | 6.55 | strongly inhibited | strongly inhibited | significantly inhibit | – | – | – |
| Gly-^MSerBu-Nal-^MAla [E11] | mTOR inhibition | kept inhibitory activity | inducing phosphorylation of AMPK | blocking | approximately 10% | – | didn't show any inhibition | didn't show any inhibition | significantly inhibit | inhibits | 6.42 | 50% |
